The NIST ThermoML archive (doi:10.1016/j.jct.2019.07.008)
Numbers after ± are expanded uncertainties.

Conditions: Liquid, Ebulliometric method (Recirculating still)

vapor or sublimation pressure (355.2 K) [kPa]	vapor or sublimation pressure (372.8 K) [kPa]	SMILES
100 ± 2		CC(C)(C)O [2-methylpropan-2-ol]
	100 ± 2	O [water]
